Results: paper PMC9656702, “Unveiling a New Selenocyanate as a Multitarget Candidate with Anticancer, Antileishmanial and Antibacterial Potential” (Molecules, 2022)

Assay: DPPH radical scavenging assay
Conditions: 0.06 mg/mL, after two hours
Procedure: Oxidative stress has been associated with a wide range of pathologies. […] Measurements were performed at 2 concentrations and recorded at eight different time points. Ascorbic acid (Asc) and Trolox were used as positive controls. The results are presented as the percentage of DPPH radical scavenging activity and are outlined in Figure 2.
The antioxidant activity of the selenocompounds was determined by the DPPH assay following a procedure previously published by our group. Briefly, the compounds were dissolved in absolute methanol at a concentration of 1 mg/mL, and a dilution was prepared. Asc and Trolox were used as positive controls. A methanolic solution (100 µM) of DPPH˙ was made daily and […]. The stability of the radical through the time of analysis was checked by absorbance measurements of this solution. A volume of 100 µL of DPPH in methanol was added to 100 µL of the compounds’ solutions to a final concentration of 0.03 or 0.06 mg/mL, and the decolorization of the purple radical to the yellowish reduced form was followed by recording the absorbance at 517 nm. Determinations were recorded at eight different time intervals from 0 to 120 min on a BioTeck PowerWave XS spectrophotometer and the data were collected using KCJunior software. All the measurements were carried out in triplicate. […]

Row | Structure (SMILES) | DPPH radical scavenging activity [%]
1 | O=C(CC[Se]Cc1ccc2c(c1)OCO2)[c-]1cccc1.[Fe+2].c1cc[cH-]c1 [Compound 2c, 3-((Benzo[d][1,3]dioxol-5-ylmethyl)selanyl)-1-ferrocenylpropan-1-one] | 76.1
2 | O=C(CC[Se]CC=Cc1ccccc1)[c-]1cccc1.[Fe+2].c1cc[cH-]c1 [Compound 1c, 3-(Cinnamylselanyl)-1-ferrocenylpropan-1-one] | 72.6
